Measurements: patent US20250161396A1, “COMPOSITION AND METHOD FOR IMPROVING LIPID METABOLISM FUNCTION OF SUBJECT” (NANJING NUTRABUILDING BIO-TECH CO., LTD., priority 2022, published 2025)

Columns and labels:
Type in all cases: in vivo
high fat diet (HFD) mice [1] = experiment: Serum total cholesterol (TC) level by commercial kit; settings: after 16 weeks of gavage
Protocol: (§1) Mice were divided into five groups: one group was normal diet mice as ND control group; one group of high fat diet (HFD) mice were gavaged with no-active-ingredients water as HFD control group, one group of HFD mice were treated with BAIBA (65 mg/kg/day) alone by gavage as HFD+BAIBA group, one group of HFD mice were treated with GP (5.2 mg/kg/day) alone by gavage as HFD+GP group, and one group of HFD mice were treated with BAIBA (65 mg/kg/day) and GP (5.2 mg/kg/day) combination by gavage as HFD+BAIBA+GP group, all for 16 weeks.
(§2) After the mice were killed, the serum was extracted by centrifugation, and the levels of triglyceride (TG) and total cholesterol (TC) in mice were measured by using commercial kits according to the instructions and recorded.

high fat diet (HFD) mice [2] = experiment: Body weight of high fat diet mice after 16 weeks of treatment
Protocol: as §1
At the beginning of treatment (baseline), the body weights of the five groups of mice were the same.

high fat diet (HFD) mice [3] = experiment: Body fat mass of high fat diet mice after 16 weeks of treatment
Protocol: as §1
Adipose tissue was collected, fixed with 10% formalin, embedded in paraffin, and dehydrated by graded alcohol. Tissue sections with a thickness of 5 μm were prepared, stained with hematoxylin-eosin (H&E) and observed under an optical microscope with a magnification of 200 times. The body fat mass of each group of mice was measured and recorded.

high fat diet (HFD) mice [4] = experiment: Oral glucose tolerance test (OGTT); settings: 8th week
Protocol: as §1
(§3) At the 8th week after the initial experiment, oral glucose tolerance test (OGTT) and insulin tolerance test (ITT) were performed on mice. OGTT is as follows: Blood from tail tip of mice was taken to detect blood glucose, and glucose (1.5 g/kg) was given by gavage after overnight fasting, and blood glucose was monitored with a blood glucose meter before administration and 15, 30, 60, 90 and 120 minutes after administration. ITT is as follows: Insulin (0.75 U/kg) was given by intraperitoneal injection on an empty stomach, and blood glucose was monitored with a blood glucose meter before administration and 15, 30, 60, 90 and 120 minutes after administration.

high fat diet (HFD) mice [5] = experiment: Serum leptin level by ELISA kit; settings: after 16 weeks of gavage
Protocol: as §1
The serum of mice was centrifuged, and the level of leptin in serum was determined by ELISA kit. According to the concentration value and light absorption value of leptin, the logarithmic value was taken as a standard curve, and the concentration value of leptin was converted according to the standard curve.

high fat diet (HFD) mice [6] = experiment: Insulin tolerance test (ITT); settings: 8th week
Protocol: as §1, §3
As shown in Table 2 and FIG. 3B, after 15 minutes, the blood glucose level of mice in HFD control group decreased greatly, and the blood glucose level before and after the end of insulin half-life was higher than that in other groups. […] It can be seen that the combination of BAIBA and GP can reduce the insulin resistance of mice, that is, improve the insulin sensitivity.

high fat diet (HFD) mice [7] = experiment: Serum triglyceride (TG) level by commercial kit; settings: after 16 weeks of gavage
Protocol: as §1, §2

[8] = gavage, BAIBA 65 mg/kg/day and/or GP 5.2 mg/kg/day, after 16 weeks
[9] = versus HFD control, after 16 weeks of gavage

## CC(CN)C(=O)O (stereo not drawn) [BAIBA, β-aminoisobutyric acid]
High fat diet (HFD) mice [1]
  total cholesterol (TC) level: 220.65 mg/dL
High fat diet (HFD) mice [2]; [8]
  body weight: 47.8 g
High fat diet (HFD) mice [2]; [9]
  body weight reduced by: 2.84%
High fat diet (HFD) mice [3]; [8]
  body fat mass: 5.38 g
High fat diet (HFD) mice [3]; [9]
  body fat mass reduced by: 13.78%
High fat diet (HFD) mice [4]; 15 min after glucose 1.5 g/kg by gavage
  blood glucose level in OGTT, 15 min: 281.91 mg/dL
High fat diet (HFD) mice [4]; 30 min after glucose 1.5 g/kg by gavage
  blood glucose level in OGTT, 30 min: 352.74 mg/dL
High fat diet (HFD) mice [4]; 60 min after glucose 1.5 g/kg by gavage
  blood glucose level in OGTT, 60 min: 411.98 mg/dL
High fat diet (HFD) mice [4]; 90 min after glucose 1.5 g/kg by gavage
  blood glucose level in OGTT, 90 min: 253.21 mg/dL
High fat diet (HFD) mice [4]; 120 min after glucose 1.5 g/kg by gavage
  blood glucose level in OGTT, 120 min: 192.99 mg/dL
High fat diet (HFD) mice [4]; across time points
  blood glucose level in OGTT compared with other groups, in words: lower than that in HFD control group at each time point
High fat diet (HFD) mice [4]; overnight fasting, before glucose 1.5 g/kg by gavage
  blood glucose level in OGTT, pre-dose: 199.85 mg/dL
High fat diet (HFD) mice [5]
  leptin level: 278.12 pg/mL
High fat diet (HFD) mice [6]; 15 min after insulin 0.75 U/kg intraperitoneal
  blood glucose level in ITT, 15 min: 105.23 mg/dL
High fat diet (HFD) mice [6]; 30 min after insulin 0.75 U/kg intraperitoneal
  blood glucose level in ITT, 30 min: 101.45 mg/dL
High fat diet (HFD) mice [6]; 60 min after insulin 0.75 U/kg intraperitoneal
  blood glucose level in ITT, 60 min: 90.45 mg/dL
High fat diet (HFD) mice [6]; 90 min after insulin 0.75 U/kg intraperitoneal
  blood glucose level in ITT, 90 min: 95.24 mg/dL
High fat diet (HFD) mice [6]; 120 min after insulin 0.75 U/kg intraperitoneal
  blood glucose level in ITT, 120 min: 92.56 mg/dL
High fat diet (HFD) mice [6]; across time points
  blood glucose level in ITT compared with other groups, in words: higher than that in HFD control group at each time point
High fat diet (HFD) mice [6]; empty stomach, before insulin 0.75 U/kg intraperitoneal
  blood glucose level in ITT, pre-dose: 140.4 mg/dL
High fat diet (HFD) mice [7]
  triglyceride (TG) level: 98.45 mg/dL
